Experimental data from PubChem BioAssay (NCI).
“And” between values parts separate entries of the source, which are not always exact repeats. Equal values may be shown once.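 The compound was tested at five concentrations on cells cultured in 96-well plates, with a 48-hour exposure period. GI50 is the concentration that inhibits growth by half. The concentration for full growth arrest is given as TGI.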

What was measured:
Test in all cases: NCI tumour cell line growth inhibition, 48 h
786-0 renal = tested on: 786-0 renal
A498 renal = tested on: A498 renal
A549 NSCLC = tested on: A549 NSCLC
ACHN renal = tested on: ACHN renal
BT-549 breast = tested on: BT-549 breast
CAKI-1 renal = tested on: CAKI-1 renal
CCRF-CEM leukemia = tested on: CCRF-CEM leukemia
COLO 205 colon = tested on: COLO 205 colon
DU-145 prostate = tested on: DU-145 prostate
EKVX NSCLC = tested on: EKVX NSCLC
HCC-2998 colon = tested on: HCC-2998 colon
HCT-116 colon = tested on: HCT-116 colon
HCT-15 colon = tested on: HCT-15 colon
HL-60(TB) leukemia = tested on: HL-60(TB) leukemia
HOP-62 NSCLC = tested on: HOP-62 NSCLC
HOP-92 NSCLC = tested on: HOP-92 NSCLC
HS 578T breast = tested on: HS 578T breast
HT29 colon = tested on: HT29 colon
K-562 leukemia = tested on: K-562 leukemia
KM12 colon = tested on: KM12 colon
LOX IMVI melanoma = tested on: LOX IMVI melanoma
M14 melanoma = tested on: M14 melanoma
MALME-3M melanoma = tested on: MALME-3M melanoma
MCF7 breast = tested on: MCF7 breast
MDA-MB-231 breast = tested on: MDA-MB-231 breast
MDA-MB-435 = tested on: MDA-MB-435
MOLT-4 leukemia = tested on: MOLT-4 leukemia
NCI-H226 lung = tested on: NCI-H226 lung
NCI-H23 lung = tested on: NCI-H23 lung
NCI-H460 lung = tested on: NCI-H460 lung
NCI-H522 lung = tested on: NCI-H522 lung
NCI/ADR-RES ovarian = tested on: NCI/ADR-RES ovarian
OVCAR-3 ovarian = tested on: OVCAR-3 ovarian
OVCAR-4 ovarian = tested on: OVCAR-4 ovarian
OVCAR-5 ovarian = tested on: OVCAR-5 ovarian
OVCAR-8 ovarian = tested on: OVCAR-8 ovarian
PC-3 prostate = tested on: PC-3 prostate
RPMI-8226 leukemia = tested on: RPMI-8226 leukemia
RXF 393 renal = tested on: RXF 393 renal
SF-268 CNS = tested on: SF-268 CNS
SF-295 CNS = tested on: SF-295 CNS
SF-539 CNS = tested on: SF-539 CNS
SK-MEL-2 melanoma = tested on: SK-MEL-2 melanoma
SK-MEL-28 melanoma = tested on: SK-MEL-28 melanoma
SK-MEL-5 melanoma = tested on: SK-MEL-5 melanoma
SK-OV-3 ovarian = tested on: SK-OV-3 ovarian
SN12C renal = tested on: SN12C renal
SNB-19 CNS = tested on: SNB-19 CNS
SNB-75 CNS = tested on: SNB-75 CNS
SR leukemia = tested on: SR leukemia
SW-620 colon = tested on: SW-620 colon
T-47D breast = tested on: T-47D breast
TK-10 renal = tested on: TK-10 renal
U251 CNS = tested on: U251 CNS
UACC-257 melanoma = tested on: UACC-257 melanoma
UACC-62 melanoma = tested on: UACC-62 melanoma
UO-31 renal = tested on: UO-31 renal
IGROV1 ovarian = tested on: IGROV1 ovarian

c1ccc(C2=C(c3ccccc3)Sc3nnc(CCCCCCCCc4nnc5n4NC(c4ccccc4)=C(c4ccccc4)S5)n3N2)cc1
TGI (786-0 renal): > 100 µM | TGI (A498 renal): > 100 µM | TGI (A549 NSCLC): > 100 µM | TGI (ACHN renal): > 100 µM | TGI (BT-549 breast): > 100 µM | TGI (CAKI-1 renal): > 100 µM | TGI (CCRF-CEM leukemia): 72.4 µM | TGI (COLO 205 colon): > 100 µM | TGI (DU-145 prostate): > 100 µM | TGI (EKVX NSCLC): > 100 µM | TGI (HCC-2998 colon): > 100 µM | TGI (HCT-116 colon): > 100 µM | TGI (HCT-15 colon): > 100 µM | TGI (HL-60(TB) leukemia): 37.2 µM | TGI (HOP-62 NSCLC): > 100 µM | TGI (HOP-92 NSCLC): > 100 µM | TGI (HS 578T breast): > 100 µM | TGI (HT29 colon): > 100 µM | TGI (K-562 leukemia): > 100 µM | TGI (KM12 colon): > 100 µM | TGI (LOX IMVI melanoma): > 100 µM | TGI (M14 melanoma): > 100 µM | TGI (MALME-3M melanoma): > 100 µM | TGI (MCF7 breast): > 100 µM | TGI (MDA-MB-231 breast): > 100 µM | TGI (MDA-MB-435): > 100 µM | TGI (MOLT-4 leukemia): 49.9 µM | TGI (NCI-H226 lung): > 100 µM | TGI (NCI-H23 lung): > 100 µM | TGI (NCI-H460 lung): > 100 µM | TGI (NCI-H522 lung): > 100 µM | TGI (NCI/ADR-RES ovarian): > 100 µM | TGI (OVCAR-3 ovarian): > 100 µM | TGI (OVCAR-4 ovarian): > 100 µM | TGI (OVCAR-5 ovarian): > 100 µM | TGI (OVCAR-8 ovarian): > 100 µM | TGI (PC-3 prostate): > 100 µM | TGI (RPMI-8226 leukemia): > 100 µM | TGI (RXF 393 renal): > 100 µM | TGI (SF-268 CNS): > 100 µM | TGI (SF-295 CNS): > 100 µM | TGI (SF-539 CNS): > 100 µM | TGI (SK-MEL-2 melanoma): > 100 µM | TGI (SK-MEL-28 melanoma): > 100 µM | TGI (SK-MEL-5 melanoma): > 100 µM | TGI (SK-OV-3 ovarian): > 100 µM | TGI (SN12C renal): > 100 µM | TGI (SNB-19 CNS): > 100 µM | TGI (SNB-75 CNS): > 100 µM | TGI (SR leukemia): > 100 µM | TGI (SW-620 colon): > 100 µM | TGI (T-47D breast): 79.2 µM | TGI (TK-10 renal): > 100 µM | TGI (U251 CNS): > 100 µM | TGI (UACC-257 melanoma): > 100 µM | TGI (UACC-62 melanoma): > 100 µM | TGI (UO-31 renal): > 100 µM

O=C(c1cc(Cc2n[nH]c(=O)c3ccccc23)ccc1F)N1CCN(C(=O)C2CC2)CC1
GI50 (786-0 renal): > 100 µM | TGI (786-0 renal): > 100 µM | GI50 (A498 renal): 19 µM and > 55.7 µM | TGI (A498 renal): > 100 µM | GI50 (A549 NSCLC): > 100 µM | TGI (A549 NSCLC): > 100 µM | GI50 (ACHN renal): 96.1 µM and 88.2 µM | TGI (ACHN renal): > 100 µM | GI50 (BT-549 breast): 32.2 µM and 33.6 µM | TGI (BT-549 breast): > 100 µM | GI50 (CAKI-1 renal): 16.5 µM and 54.5 µM | TGI (CAKI-1 renal): 48.1 µM and > 100 µM | GI50 (CCRF-CEM leukemia): > 100 µM | TGI (CCRF-CEM leukemia): > 100 µM | GI50 (COLO 205 colon): > 100 µM | TGI (COLO 205 colon): > 100 µM | GI50 (DU-145 prostate): 33.5 µM and > 100 µM | TGI (DU-145 prostate): > 100 µM | GI50 (EKVX NSCLC): 18 µM and 77.7 µM | TGI (EKVX NSCLC): > 100 µM | GI50 (HCC-2998 colon): 53.5 µM and > 100 µM | TGI (HCC-2998 colon): > 100 µM | GI50 (HCT-116 colon): > 100 µM and 99.1 µM | TGI (HCT-116 colon): > 100 µM | GI50 (HCT-15 colon): > 100 µM | TGI (HCT-15 colon): > 100 µM | GI50 (HL-60(TB) leukemia): > 100 µM | TGI (HL-60(TB) leukemia): > 100 µM | GI50 (HOP-62 NSCLC): 43.2 µM | TGI (HOP-62 NSCLC): > 100 µM | TGI (HOP-92 NSCLC): > 100 µM | GI50 (HS 578T breast): 12.4 µM and > 100 µM | TGI (HS 578T breast): > 100 µM | GI50 (HT29 colon): > 100 µM | TGI (HT29 colon): > 100 µM | GI50 (IGROV1 ovarian): 56.8 µM and 68.3 µM | TGI (IGROV1 ovarian): > 100 µM | GI50 (K-562 leukemia): 54.5 µM and > 66.4 µM | TGI (K-562 leukemia): > 100 µM | GI50 (KM12 colon): > 100 µM | TGI (KM12 colon): > 100 µM | GI50 (LOX IMVI melanoma): 18.9 µM and 66.3 µM | TGI (LOX IMVI melanoma): > 100 µM | GI50 (M14 melanoma): 73.3 µM and > 86 µM | TGI (M14 melanoma): > 100 µM | GI50 (MALME-3M melanoma): 62.4 µM and > 100 µM | TGI (MALME-3M melanoma): > 100 µM | GI50 (MCF7 breast): 47.4 µM and 34.2 µM | TGI (MCF7 breast): > 100 µM | GI50 (MDA-MB-231 breast): > 100 µM | TGI (MDA-MB-231 breast): > 100 µM | GI50 (MDA-MB-435): 58 µM and 97.6 µM | TGI (MDA-MB-435): > 100 µM | GI50 (MOLT-4 leukemia): 46.7 µM and 22.4 µM | TGI (MOLT-4 leukemia): > 100 µM | GI50 (NCI-H226 lung): 41.3 µM and 48.8 µM | TGI (NCI-H226 lung): > 100 µM | GI50 (NCI-H23 lung): 23.6 µM and 40.3 µM | TGI (NCI-H23 lung): > 100 µM | GI50 (NCI-H460 lung): 9.25 µM and 9.96 µM | TGI (NCI-H460 lung): > 100 µM | GI50 (NCI-H522 lung): > 100 µM | TGI (NCI-H522 lung): > 100 µM | GI50 (NCI/ADR-RES ovarian): > 100 µM | TGI (NCI/ADR-RES ovarian): > 100 µM | GI50 (OVCAR-3 ovarian): 32.8 µM and > 77.2 µM | TGI (OVCAR-3 ovarian): > 100 µM | GI50 (OVCAR-4 ovarian): 22.7 µM and 36 µM | TGI (OVCAR-4 ovarian): > 100 µM | GI50 (OVCAR-5 ovarian): > 100 µM | TGI (OVCAR-5 ovarian): > 100 µM | GI50 (OVCAR-8 ovarian): > 100 µM | TGI (OVCAR-8 ovarian): > 100 µM | GI50 (PC-3 prostate): 43.1 µM and > 71.4 µM | TGI (PC-3 prostate): > 100 µM | GI50 (RPMI-8226 leukemia): 30.5 µM and 35.7 µM | TGI (RPMI-8226 leukemia): > 100 µM | GI50 (RXF 393 renal): 52.1 µM and > 41.4 µM | TGI (RXF 393 renal): > 100 µM | GI50 (SF-268 CNS): 53.2 µM and 59.6 µM | TGI (SF-268 CNS): > 100 µM | TGI (SF-295 CNS): 23.4 µM and > 100 µM | GI50 (SF-539 CNS): > 100 µM | TGI (SF-539 CNS): > 100 µM | GI50 (SK-MEL-2 melanoma): > 100 µM | TGI (SK-MEL-2 melanoma): > 100 µM | GI50 (SK-MEL-28 melanoma): > 100 µM | TGI (SK-MEL-28 melanoma): > 100 µM | GI50 (SK-MEL-5 melanoma): 27.6 µM and 29.1 µM | TGI (SK-MEL-5 melanoma): > 100 µM | GI50 (SK-OV-3 ovarian): > 100 µM | TGI (SK-OV-3 ovarian): > 100 µM | GI50 (SN12C renal): > 100 µM | TGI (SN12C renal): > 100 µM | GI50 (SNB-19 CNS): 80.5 µM and > 85.1 µM | TGI (SNB-19 CNS): > 100 µM | GI50 (SNB-75 CNS): 14.9 µM and 18 µM | TGI (SNB-75 CNS): > 100 µM | GI50 (SR leukemia): 7.78 µM and 14.1 µM | TGI (SR leukemia): > 100 µM | GI50 (SW-620 colon): 64.4 µM and > 94.1 µM | TGI (SW-620 colon): > 100 µM | GI50 (T-47D breast): 31.5 µM | TGI (T-47D breast): > 100 µM | GI50 (TK-10 renal): > 100 µM and 48.1 µM | TGI (TK-10 renal): > 100 µM | GI50 (U251 CNS): 35.1 µM and 31.5 µM | TGI (U251 CNS): > 100 µM | GI50 (UACC-257 melanoma): > 100 µM | TGI (UACC-257 melanoma): > 100 µM | GI50 (UACC-62 melanoma): 67.9 µM and 76.2 µM | TGI (UACC-62 melanoma): > 100 µM | GI50 (UO-31 renal): 71.7 µM and 40.7 µM | TGI (UO-31 renal): > 100 µM
